Active and inactive are the calls of the source. No cut-off for these calls is given here.
Legend:
Klebsiella pneumoniae [1] = test: Potentiation of geneticin-induced antibacterial activity against Klebsiella pneumoniae ATCC 13883 assessed as minimum modulatory concentration up to 32 uM measured after 16 hrs in presence of MIC/4 geneticin; format: functional; details: ATCC 13883, 16 h, read-out: MEC
Streptococcus pyogenes [2] = test: Potentiation of ciprofloxacin-induced antibacterial activity against Streptococcus pyogenes ATCC 14289 assessed as minimum modulatory concentration up to 32 uM measured after 16 hrs in presence of MIC/4 ciprofloxacin; format: functional; details: ATCC 14289, 16 h, read-out: MEC
Streptococcus pyogenes [3] = test: Potentiation of erythromycin-induced antibacterial activity against Streptococcus pyogenes ATCC 14289 assessed as minimum modulatory concentration up to 32 uM measured after 16 hrs in presence of MIC/4 erythromycin; format: functional; details: ATCC 14289, 16 h, read-out: MEC
Klebsiella pneumoniae [4] = test: Potentiation of methicillin-induced antibacterial activity against Klebsiella pneumoniae ATCC 13883 assessed as minimum modulatory concentration up to 32 uM measured after 16 hrs in presence of MIC/4 methicillin; format: functional; details: ATCC 13883, 16 h, read-out: MEC
Escherichia coli [5] = test: Toxicity in Escherichia coli ATCC 43894 up to 32 uM measured after 16 hrs; format: organism-based
Macrophage cell line [6] = test: Induction of TNFalpha production in human PBMC-differentiated macrophages after 24 hrs by ELISA; format: cell-based
Staphylococcus aureus [7] = test: Potentiation of tetracycline-induced antibacterial activity against Staphylococcus aureus ATCC 33592 assessed as minimum modulatory concentration up to 32 uM measured after 16 hrs in presence of MIC/4 tetracycline; format: functional; details: ATCC 33592, 16 h, read-out: MEC
Staphylococcus aureus [8] = test: Potentiation of ciprofloxacin-induced antibacterial activity against Staphylococcus aureus ATCC 33592 assessed as minimum modulatory concentration up to 32 uM measured after 16 hrs in presence of MIC/4 ciprofloxacin; format: functional; details: ATCC 33592, 16 h, read-out: MEC
Pseudomonas aeruginosa [9] = test: Potentiation of erythromycin-induced antibacterial activity against Pseudomonas aeruginosa ATCC BAA-2108 assessed as minimum modulatory concentration up to 32 uM measured after 16 hrs in presence of MIC/4 erythromycin; format: functional; details: ATCC BAA-2108, 16 h, read-out: MEC
Macrophage cell line [10] = test: Antiinflammatory activity in human PBMC-differentiated macrophages assessed as inhibition of LPS-induced prostaglandin production at 0.01 to 10 uM measured after 24 hrs by ELISA; format: functional, cell-based
Escherichia coli [11] = test: Potentiation of erythromycin-induced antibacterial activity against Escherichia coli ATCC 43894 assessed as minimum modulatory concentration up to 32 uM measured after 16 hrs in presence of MIC/4 erythromycin; format: functional; details: ATCC 43894, 16 h, read-out: MEC
Klebsiella pneumoniae [12] = test: Potentiation of ciprofloxacin-induced antibacterial activity against Klebsiella pneumoniae ATCC 13883 assessed as minimum modulatory concentration up to 32 uM measured after 16 hrs in presence of MIC/4 ciprofloxacin; format: functional; details: ATCC 13883, 16 h, read-out: MEC
Escherichia coli [13] = test: Potentiation of methicillin-induced antibacterial activity against Escherichia coli ATCC 43894 assessed as minimum modulatory concentration up to 32 uM measured after 16 hrs in presence of MIC/4 methicillin; format: functional; details: ATCC 43894, 16 h, read-out: MEC
Streptococcus pyogenes [14] = test: Toxicity in Streptococcus pyogenes ATCC 14289 up to 32 uM measured after 16 hrs; format: organism-based
Staphylococcus aureus [15] = test: Potentiation of geneticin-induced antibacterial activity against Staphylococcus aureus ATCC 33592 assessed as minimum modulatory concentration up to 32 uM measured after 16 hrs in presence of MIC/4 geneticin; format: functional; details: ATCC 33592, 16 h, read-out: MEC
Staphylococcus aureus [16] = test: Potentiation of erythromycin-induced antibacterial activity against Staphylococcus aureus ATCC 33592 assessed as minimum modulatory concentration up to 32 uM measured after 16 hrs in presence of MIC/4 erythromycin; format: functional; details: ATCC 33592, 16 h, read-out: MEC
Streptococcus pyogenes [17] = test: Potentiation of geneticin-induced antibacterial activity against Streptococcus pyogenes ATCC 14289 assessed as minimum modulatory concentration up to 32 uM measured after 16 hrs in presence of MIC/4 geneticin; format: functional; details: ATCC 14289, 16 h, read-out: MEC
Enterococcus faecium [18] = test: Potentiation of geneticin-induced antibacterial activity against Enterococcus faecium ATCC 700221 assessed as minimum modulatory concentration up to 32 uM measured after 16 hrs in presence of MIC/4 geneticin; format: functional; details: ATCC 700221, 16 h, read-out: MEC
Enterococcus faecium [19] = test: Toxicity in Enterococcus faecium ATCC 700221 up to 32 uM measured after 16 hrs; format: organism-based; details: in vitro
Staphylococcus aureus [20] = test: Toxicity in Staphylococcus aureus ATCC 33592 up to 32 uM measured after 16 hrs; format: organism-based
Klebsiella pneumoniae [21] = test: Toxicity in Klebsiella pneumoniae ATCC 13883 up to 32 uM measured after 16 hrs; format: organism-based
Staphylococcus aureus [22] = test: Potentiation of methicillin-induced antibacterial activity against Staphylococcus aureus ATCC 33592 assessed as minimum modulatory concentration up to 32 uM measured after 16 hrs in presence of MIC/4 methicillin; format: functional; details: ATCC 33592, 16 h, read-out: MEC
Macrophage cell line [23] = test: Induction of prostaglandin production in human PBMC-differentiated macrophages after 24 hrs by ELISA; format: cell-based
Enterococcus faecium [24] = test: Potentiation of erythromycin-induced antibacterial activity against Enterococcus faecium ATCC 700221 assessed as minimum modulatory concentration up to 32 uM measured after 16 hrs in presence of MIC/4 erythromycin; format: functional; details: ATCC 700221, 16 h, read-out: MEC
Escherichia coli [25] = test: Potentiation of tetracycline-induced antibacterial activity against Escherichia coli ATCC 43894 assessed as minimum modulatory concentration up to 32 uM measured after 16 hrs in presence of MIC/4 tetracycline; format: functional; details: ATCC 43894, 16 h, read-out: MEC
Pseudomonas aeruginosa [26] = test: Potentiation of methicillin-induced antibacterial activity against Pseudomonas aeruginosa ATCC BAA-2108 assessed as minimum modulatory concentration up to 32 uM measured after 16 hrs in presence of MIC/4 methicillin; format: functional; details: ATCC BAA-2108, 16 h, read-out: MEC
Pseudomonas aeruginosa [27] = test: Potentiation of tetracycline-induced antibacterial activity against Pseudomonas aeruginosa ATCC BAA-2108 assessed as minimum modulatory concentration up to 32 uM measured after 16 hrs in presence of MIC/4 tetracycline; format: functional; details: ATCC BAA-2108, 16 h, read-out: MEC
Klebsiella pneumoniae [28] = test: Potentiation of erythromycin-induced antibacterial activity against Klebsiella pneumoniae ATCC 13883 assessed as minimum modulatory concentration up to 32 uM measured after 16 hrs in presence of MIC/4 erythromycin; format: functional; details: ATCC 13883, 16 h, read-out: MEC
Pseudomonas aeruginosa [29] = test: Potentiation of geneticin-induced antibacterial activity against Pseudomonas aeruginosa ATCC BAA-2108 assessed as minimum modulatory concentration up to 32 uM measured after 16 hrs in presence of MIC/4 geneticin; format: functional; details: ATCC BAA-2108, 16 h, read-out: MEC
Klebsiella pneumoniae [30] = test: Potentiation of tetracycline-induced antibacterial activity against Klebsiella pneumoniae ATCC 13883 assessed as minimum modulatory concentration up to 32 uM measured after 16 hrs in presence of MIC/4 tetracycline; format: functional; details: ATCC 13883, 16 h, read-out: MEC
Enterococcus faecium [31] = test: Potentiation of tetracycline-induced antibacterial activity against Enterococcus faecium ATCC 700221 assessed as minimum modulatory concentration up to 32 uM measured after 16 hrs in presence of MIC/4 tetracycline; format: functional; details: ATCC 700221, 16 h, read-out: MEC
Streptococcus pyogenes [32] = test: Potentiation of tetracycline-induced antibacterial activity against Streptococcus pyogenes ATCC 14289 assessed as minimum modulatory concentration up to 32 uM measured after 16 hrs in presence of MIC/4 tetracycline; format: functional; details: ATCC 14289, 16 h, read-out: MEC
Macrophage cell line [33] = test: Antiinflammatory activity in human PBMC-differentiated macrophages assessed as inhibition of LPS-induced IL-8 production at 0.01 to 10 uM measured after 24 hrs by ELISA; format: functional, cell-based

SMILES | minimal effective concentration (Klebsiella pneumoniae [1]) [µM] | minimal effective concentration (Streptococcus pyogenes [2]) [µM] | minimal effective concentration (Streptococcus pyogenes [3]) [µM] | minimal effective concentration (Klebsiella pneumoniae [4]) [µM] | Activity (Escherichia coli [5]) | Activity (Macrophage cell line [6]) | minimal effective concentration (Staphylococcus aureus [7]) [µM] | minimal effective concentration (Staphylococcus aureus [8]) [µM] | minimal effective concentration (Pseudomonas aeruginosa [9]) [µM] | inhibition (Macrophage cell line [10]) | minimal effective concentration (Escherichia coli [11]) [µM] | minimal effective concentration (Klebsiella pneumoniae [12]) [µM] | minimal effective concentration (Escherichia coli [13]) [µM] | Activity (Streptococcus pyogenes [14]) | minimal effective concentration (Staphylococcus aureus [15]) [µM] | minimal effective concentration (Staphylococcus aureus [16]) [µM] | minimal effective concentration (Streptococcus pyogenes [17]) [µM] | minimal effective concentration (Enterococcus faecium [18]) [µM] | Activity (Enterococcus faecium [19]) | Activity (Staphylococcus aureus [20]) | further results
O=C(O)c1cc(-c2ccccc2)ncc1O | > 32 | > 32 | > 32 | > 32 | Non-Toxic | Non-Toxic | > 32 | 16 | > 32 | inactive | > 32 | > 32 | > 32 | Non-Toxic | > 32 | > 32 | 16 | > 32 | Non-Toxic | Non-Toxic | Activity (Klebsiella pneumoniae [21]): Non-Toxic; minimal effective concentration (Staphylococcus aureus [22]): 16 µM; Activity (Macrophage cell line [23]): Non-Toxic; minimal effective concentration (Enterococcus faecium [24]): > 32 µM; minimal effective concentration (Escherichia coli [25]): > 32 µM; minimal effective concentration (Pseudomonas aeruginosa [26]): > 32 µM; minimal effective concentration (Pseudomonas aeruginosa [27]): > 32 µM; minimal effective concentration (Klebsiella pneumoniae [28]): > 32 µM; minimal effective concentration (Pseudomonas aeruginosa [29]): > 32 µM; minimal effective concentration (Klebsiella pneumoniae [30]): > 32 µM; minimal effective concentration (Enterococcus faecium [31]): > 32 µM; minimal effective concentration (Streptococcus pyogenes [32]): > 32 µM; inhibition (Macrophage cell line [33]): inactive
O=C(O)c1ccnc(Cc2ccccc2)c1O | > 32 | > 32 | > 32 | > 32 | Non-Toxic | Non-Toxic | > 32 | > 32 | > 32 | inactive | > 32 | > 32 | > 32 | Non-Toxic | > 32 | > 32 | > 32 | > 32 | Non-Toxic | Non-Toxic | Activity (Klebsiella pneumoniae [21]): Non-Toxic; minimal effective concentration (Staphylococcus aureus [22]): > 32 µM; Activity (Macrophage cell line [23]): Non-Toxic; minimal effective concentration (Enterococcus faecium [24]): > 32 µM; minimal effective concentration (Escherichia coli [25]): > 32 µM; minimal effective concentration (Pseudomonas aeruginosa [26]): > 32 µM; minimal effective concentration (Pseudomonas aeruginosa [27]): > 32 µM; minimal effective concentration (Klebsiella pneumoniae [28]): > 32 µM; minimal effective concentration (Pseudomonas aeruginosa [29]): > 32 µM; minimal effective concentration (Klebsiella pneumoniae [30]): > 32 µM; minimal effective concentration (Enterococcus faecium [31]): > 32 µM; minimal effective concentration (Streptococcus pyogenes [32]): > 32 µM; inhibition (Macrophage cell line [33]): inactive
COc1cccc(-c2cc(C(=O)O)c(O)cn2)c1 | > 32 | > 32 | > 32 | > 32 | Non-Toxic | Non-Toxic | > 32 | > 32 | > 32 | inactive | > 32 | > 32 | > 32 | Non-Toxic | > 32 | > 32 | > 32 | > 32 | Non-Toxic | Non-Toxic | Activity (Klebsiella pneumoniae [21]): Non-Toxic; minimal effective concentration (Staphylococcus aureus [22]): 16 µM; Activity (Macrophage cell line [23]): Non-Toxic; minimal effective concentration (Enterococcus faecium [24]): > 32 µM; minimal effective concentration (Escherichia coli [25]): > 32 µM; minimal effective concentration (Pseudomonas aeruginosa [26]): > 32 µM; minimal effective concentration (Pseudomonas aeruginosa [27]): > 32 µM; minimal effective concentration (Klebsiella pneumoniae [28]): > 32 µM; minimal effective concentration (Pseudomonas aeruginosa [29]): > 32 µM; minimal effective concentration (Klebsiella pneumoniae [30]): > 32 µM; minimal effective concentration (Enterococcus faecium [31]): > 32 µM; minimal effective concentration (Streptococcus pyogenes [32]): > 32 µM; inhibition (Macrophage cell line [33]): inactive

— ChEMBL document CHEMBL4257522, “Synthesis and preliminary anti-inflammatory and anti-bacterial evaluation of some diflunisal aza-analogs” (Medchemcomm, 2018)
